The numbers were not newly measured in patent publication US6537523B1, “Diagnosis and treatment of cancer having clonal macrophage involvement” (The Regents of the University of California, priority 1994, dated 2003), which cites them from elsewhere.

For the series, the system named is HIV antigens in human blood cells including macrophages.

Consider Trichosanthin, for which the “expression of HIV antigens” value is “inhibit expression of HIV antigens”.
